Reference: publication PMC6143625, “A high throughput screen for next-generation leads targeting malaria parasite transmission” (Nature Communications, 2018)
Like-named read-outs stand apart in the source and are kept apart here.

What was measured:
[1] = test system: P. falciparum stage V male gametocytes (male gamete formation); experiment: P. falciparum dual gamete formation assay (Pf DGFA), male readout (exflagellation), 48 h carry-over format; format: cell-based, Plasmodium falciparum NF54; conditions: for IC50 / inhibition at 2 µM: Plasmodium falciparum; for activity in the Pf DGFA: freshly resynthesized compound; for inhibition at 2 µM: primary screen, single replicate
[2] = test system: P. falciparum male gamete formation; experiment: Pf DGFA add-in format, male readout; format: cell-based, Plasmodium falciparum; conditions: Plasmodium falciparum; 0h preincubation/add-in
Experimental: (§1) In profiling mode, the Pf DGFA was performed in 96-well plates[23] in wash-out and add-in formats to aid manual manipulation steps. In the wash-out format, gametocytes were incubated for 24 h with test compounds in round-bottomed 96 well plates and then culture medium replaced three times over 6 h, to remove as much of the compound as possible from the well. […] In add-in format, gametocytes were added directly to flat-bottomed 96-well plates containing test compounds, ookinete medium and anti-Pfs25.

[3] = test system: P. falciparum female gamete formation; experiment: Pf DGFA add-in format, female readout; format: cell-based; conditions: Plasmodium falciparum; 0h preincubation/add-in
Experimental: as §1

[4] = test system: P. berghei-ANKA-GFP-Luc-SMCON sporozoites in HepG2-A16-CD81EGFP cells; experiment: P. berghei liver stage assay (luciferase sporozoite HepG2 invasion); format: cell-based; conditions: Plasmodium berghei
Experimental: (§2) Compound inhibition of P. berghei sporozoite liver infection was assessed in a high-throughput luciferase assay. 1536-well plates (789173-F, Greiner Bio-One) were pre-seeded with 5 µl HepG2-A16-CD81^EGFP cells grown in DMEM (11965–092, Invitrogen) containing 10% FBS (35–011-CV, Corning) and 1× Pen Strep Glutamine (10378–016, Invitrogen). Then, 50 nl of compound in DMSO was dispensed in 12-point serial dilution dose-response format (50 µM to 2.82 × 10^−4 µM), and incubated overnight.A. stephensi mosquitoes infected with P. berghei-ANKA-GFP-Luc-SMCON (Pb-Luc)[41] sporozoites bearing the antifolate-resistance-conferring Toxoplasma gondii dihydrofolate reductase-thymidylate synthase selectable marker, pyR2. After dissection, ~1000 sporozoites in 5 µl screening media (DMEM, 11965–092, Invitrogen; 5% FBS, 35–011-CV, Corning; 5x Pen Strep Glutamine, 10378–016, Invitrogen) were added per well and incubated for 48 h (37 °C, 5% CO2). Bioluminescence was measured using an EnVision microplate reader (Perkin Elmer), following the addition of 2 µl per well of Bright-Glo™ (Promega). Compound toxicity against HepG2 cells was determined in parallel by measuring cellular ATP levels reported by luciferase activity. Methods were similar to the P. berghei liver stage assay, except for the addition of CellTiter-Glo® (Promega) as a detection reagent. DMSO (0.5%) was used as a negative control in both assays, with Atovaquone (5 µM) and Puromycin (10 µM) acting as positive controls in the P. berghei and toxicity assays, respectively.

[5] = test system: HepG2 cells; experiment: HepG2 toxicity (CellTiter-Glo, parallel to liver stage assay); format: cell-based, human
Experimental: as §2

[6] = test system: P. falciparum stage V male gametocytes (male gamete formation); experiment: P. falciparum dual gamete formation assay (Pf DGFA), male readout (exflagellation), 48 h carry-over format; format: cell-based, Plasmodium falciparum NF54; conditions: Plasmodium falciparum, 24h preincubation/carry-over
[7] = test system: HepG2 human cells; set-up: method as in http://dx.doi.org/10.6019/CHEMBL3507680; conditions: ref http://dx.doi.org/10.6019/CHEMBL3507680; cited from earlier work
[8] = BPCA vs GHCDL stock of DDD599, adjusted for correct molecular weight, read-out: Pf DGFA male IC50
[9] = SAR, Fig. 6 and Fig. 7, read-out: Male IC50
[10] = 48h incubation, read-out: Pb Liver invasion assay IC50
[11] = 48 h, dose response retest of primary hits, 48 h incubation, read-out: Male IC50
[12] = 48h preincubation/carry-over, read-out: Pf DGFA Male IC50

SMILES	IC50 [1, 8]	IC50 [1, 9]	Selectivity ([1]; parasite selectivity compared to Tox50 in HepG2 cells)	IC50 ([1]; compound resynthesised at GSK, read-out: IC50 against male gametocytes)	activity in the Pf DGFA [1]	IC50 [2]	IC50 [3]	IC50 [4, 10]	Human HepG2 assay TOX50 ([5]; human, 48 h)	IC50 [6]	%Inh HepG2 @10uM [7]	IC50 [1, 11]	IC50 [1, 12]	inhibition at 2 µM ([1]; 48 h incubation)	Human HepG2 assay TOX50 ([5]; 48h incubation)	IC50 ([4]; read-out: Pb liver IC50)	HepG2 TOX50 ([5]; human, 48 h)	IC50 ([1]; 240 h, resynthesized, aged 10 days at room temperature in the light, read-out: IC50 in Pf DGFA after aging)	activity in Pf DGFA after aging ([1]; resynthesized, incubated in the dark at 37 °C)	activity in Pf DGFA ([1]; resynthesized, untreated compound)
O=C(CCl)Nc1ccc(Br)cc1 [BPCA, N-(4-bromophenyl)-2-chloroacetamide]	1.46 µM	1.42 µM	17	–	–	–	–	–	–	–	–	–	–	–	–	–	–	–	–	–
CC(=O)c1c(C)nn(CC(=O)Nc2ccc(Br)cc2)c1C [DDD01027599]	1.38 µM	–	–	> 50 µM	inactive	> 10 µM	> 10 µM	7.48 µM	25.00 µM	4.03 µM	4.72%	–	–	–	–	–	–	–	–	–
O=S(=O)(NCC1(O)CCOc2ccccc21)c1ccccc1F (stereo not drawn) [DDD01028073]	–	0.34 µM	–	–	–	0.34 µM	> 10 µM	> 50 µM	>50.0 µM	0.58 µM	-4.25%	0.29 µM	0.24 µM	95%	–	–	–	–	–	–
Cc1ccc(S(=O)(=O)NCC2(O)CCOc3ccccc32)s1 (stereo not drawn) [DDD01028074]	–	0.61 µM	–	–	–	0.61 µM	> 10 µM	> 50 µM	>50.0 µM	0.79 µM	-4.01%	0.22 µM	0.49 µM	101%	–	–	–	–	–	–
O=S(=O)(NCC1(O)CCOc2ccccc21)c1ccc(Cl)s1 (stereo not drawn) [DDD01028075]	–	0.24 µM	–	–	–	0.24 µM	> 10 µM	> 50 µM	>50.0 µM	1.32 µM	-6.65%	0.45 µM	1.48 µM	53.1%	–	–	–	–	–	–
O=S(=O)(NCC1(O)CCOc2ccccc21)c1ccccc1Br (stereo not drawn) [DDD01028076]	–	0.53 µM	–	–	–	0.53 µM	> 10 µM	> 50 µM	>50.0 µM	0.48 µM	-0.163%	0.16 µM	0.72 µM	98.3%	–	–	–	–	–	–
COc1cccc(-n2ccc3nc(N4CCCC4)ncc3c2=O)c1 [DDD01034957]	–	–	–	–	–	> 10 µM	> 10 µM	–	>50.0 µM	> 12.5 µM	-4.05%	–	> 12.5 µM	–	–	–	–	–	–	–
O=S(=O)(NCC1(O)CCOc2ccccc21)c1cccs1 (stereo not drawn) [DDD01035879]	–	0.28 µM	–	–	–	0.28 µM	> 10 µM	> 50 µM	>50.0 µM	0.89 µM	3.15%	1.1 µM	1.65 µM	83.8%	–	–	–	–	–	–
O=S(=O)(NCC1(O)CCOc2ccccc21)c1ccc(Br)s1 (stereo not drawn) [DDD01035881]	–	0.19 µM	–	–	–	0.19 µM	> 10 µM	–	>50.0 µM	0.26 µM	3.29%	0.54 µM	0.7 µM	102%	–	–	–	–	–	–
Cc1cccc(NC(=O)c2cccc(OCc3nnnn3C)c2)n1 [DDD01038630]	–	–	–	–	–	> 10 µM	> 10 µM	> 50 µM	>50.0 µM	> 12.5 µM	18.75%	–	> 12.5 µM	–	–	–	–	–	–	–
CC(c1ccco1)N(C(=O)CNc1ccc(C#N)cc1)C1CC1 (stereo not drawn) [DDD01062645]	–	–	–	–	–	0.44 µM	5.05 µM	–	>50.0 µM	> 12.5 µM	4.38%	0.43 µM	2.07 µM	96%	–	–	–	–	–	–
Cc1ccc(CN(c2cc(C)nc3nc(C(F)(F)F)nn23)C2CC2)cc1 [DDD01063654]	–	–	–	–	–	> 10 µM	> 10 µM	15.3 µM	>50.0 µM	> 12.5 µM	0.83%	–	> 12.5 µM	–	–	–	–	–	–	–
Cc1cc(C)c(CNCC(O)c2ccc(F)c(F)c2)c(C)c1.Cl (stereo not drawn) [DDD01065539]	–	–	–	–	–	> 10 µM	> 10 µM	17.2 µM	–	> 12.5 µM	-11.40%	–	> 12.5 µM	–	36.6 µM	–	–	–	–	–
CC(NCC1CCN(CCO)CC1)c1ccc(OC(F)(F)F)cc1 (stereo not drawn) [DDD01073716]	–	–	–	–	–	> 10 µM	> 10 µM	15.5 µM	>50.0 µM	11 µM	-2.01%	7.09 µM	1.43 µM	43.9%	–	–	–	–	–	–
CN(Cc1cccc(F)c1)C(=O)CS(=O)(=O)Cc1c(Cl)cccc1Cl [DDD01077188]	–	–	–	–	–	> 10 µM	> 10 µM	23.1 µM	>50.0 µM	> 12.5 µM	5.76%	–	> 12.5 µM	–	–	–	–	–	–	–
CN1CCC(NCC(O)c2cccc(OCc3ccccc3)c2)CC1 (stereo not drawn) [DDD01079164]	–	–	–	–	–	> 10 µM	> 10 µM	16.5 µM	38.40 µM	6.04 µM	4.18%	5.75 µM	0.92 µM	45.7%	–	–	–	–	–	–
CNc1cc(C)nc(NC2CCCN(C3Cc4ccccc4C3)C2)n1 (stereo not drawn) [DDD01243506]	–	–	–	–	–	> 10 µM	> 10 µM	–	>50.0 µM	> 12.5 µM	28.56%	–	> 12.5 µM	–	–	0.52 µM	≥ 50 µM	–	–	–
OC1(CN2CCC(Oc3cccc(C(F)(F)F)c3)CC2)CCNC1 (stereo not drawn) [DDD01245291]	–	–	–	–	–	> 10 µM	> 10 µM	6.06 µM	21.70 µM	5.99 µM	-7.31%	3.05 µM	1.11 µM	48.3%	–	–	–	–	–	–
CC(c1cccs1)N(C)Cc1cnc(-c2ccccn2)nc1 (stereo not drawn) [DDD01246628]	–	–	–	–	–	> 10 µM	> 10 µM	13.3 µM	11.30 µM	> 25 µM	3.52%	2.54 µM	1.17 µM	67.8%	–	–	–	–	–	–
CC(C)CN1CCn2nc(CNc3ncnc4[nH]ccc34)cc2C1 [DDD01249504]	–	–	–	–	inactive	> 10 µM	> 10 µM	> 50 µM	>50.0 µM	1.83 µM	7.26%	2.27 µM	1.66 µM	52.1%	–	–	–	0.381 µM	inactive	inactive
CCCn1nccc1C(=O)N1CCN(C2CCc3ccccc3C2)CC1 (stereo not drawn) [DDD01251134]	–	–	–	–	–	> 10 µM	> 10 µM	20.7 µM	>50.0 µM	> 12.5 µM	-7.89%	–	> 12.5 µM	–	–	–	–	–	–	–
Cc1nn(C)c(Oc2ccc(Cl)cc2)c1CN1CCC(CN)C1 (stereo not drawn) [DDD01254274]	–	–	–	–	–	> 10 µM	> 10 µM	> 50 µM	>50.0 µM	> 25 µM	-8.55%	4.08 µM	2.25 µM	53.1%	–	–	–	–	–	–
CCc1ccc(C2c3nc[nH]c3CCN2Cc2nccn2CC)nc1 (stereo not drawn) [DDD01254473]	–	–	–	–	–	> 10 µM	> 10 µM	> 50 µM	>50.0 µM	> 25 µM	33.1%	> 10 µM	3.96 µM	< 30%	–	–	–	–	–	–
